Where “and” joins values, the source holds several entries; their conditions need not be identical. Identical values can stand only once.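 Compound exposure: 48 hours, 5 concentrations, 96-well plates. GI50 marks 50% less growth.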 Calls of active or inactive are those of the source. No stated cut-off is given here; in the data, active = GI50 up to about 1.1 µM and inactive = higher.
Experiments:
Experiment in all cases: inhibition of tumour cell growth, NCI panel, 48 h
[1] = test system: NCI-H226
[2] = test system: RPMI-8226
[3] = test system: SW-620
[4] = test system: SK-MEL-5
[5] = test system: SF-295
[6] = test system: UO-31
[7] = test system: SK-OV-3
[8] = test system: LOX IMVI
[9] = test system: 786-0
[10] = test system: K562
[11] = test system: SN12C
[12] = test system: A549
[13] = test system: NCI-H460
[14] = test system: UACC-257
[15] = test system: KM12
[16] = test system: UACC-62
[17] = test system: HL-60
[18] = test system: HT-29
[19] = test system: PC-3

Measured: GI50

O=C1C(Cl)=C(Cl)C(=O)N1c1ccccc1Cl
inactive: [1] > 100 µM | [2] > 54.1 µM | [3] > 52.6 µM | [4] > 100 µM | [5] > 100 µM | [6] > 100 µM | [7] > 100 µM | [8] > 100 µM | [9] > 79.3 µM | [10] 28.9 µM | [11] > 100 µM | [12] > 100 µM | [13] > 100 µM | [14] > 100 µM | [15] > 100 µM | [16] > 100 µM | [17] 15.3 µM | [18] > 71 µM

O=C1CCC2(c3ccccc3)Nc3cc(Cl)ccc3N12 (configuration not stated)
inactive: [1] 19.2 µM | [2] 22 µM | [3] 41.5 µM | [4] 16.9 µM | [5] 27.4 µM | [6] 25.5 µM | [7] 43.8 µM | [8] 33 µM | [9] 35.6 µM | [10] 32 µM | [11] 35.1 µM | [12] 31 µM | [13] 32.7 µM | [14] 24 µM | [15] 27.6 µM | [16] 19 µM | [17] 20.8 µM | [18] 31.7 µM

CN1CCOC(C(NC(=O)c2ccccc2)c2ccccc2)C1=O (configuration not stated)
inactive: [1] > 100 µM | [2] > 100 µM | [3] > 100 µM | [4] > 100 µM | [5] > 100 µM | [6] > 100 µM | [7] > 100 µM | [8] > 100 µM | [9] > 100 µM | [10] > 100 µM | [11] > 100 µM | [12] > 100 µM | [13] > 100 µM | [14] > 100 µM | [15] > 100 µM | [16] > 100 µM | [17] > 100 µM | [18] > 100 µM

O=C(NC1CCCCCC1)C1C(=O)N(C2CCCCCC2)C(=O)/C1=N\O (configuration not stated)
inactive: [1] 35.6 µM | [2] 29.1 µM | [3] 37.6 µM | [4] 36.1 µM | [5] 36.6 µM | [6] 28.4 µM | [7] 38.4 µM | [8] 35.6 µM | [9] 32.8 µM | [10] 39.1 µM | [11] 34.7 µM | [12] 42.8 µM | [13] 35.7 µM | [14] 38.8 µM | [15] 37.1 µM | [16] 21 µM | [17] 22.5 µM | [18] 30.3 µM

COc1ccc(/C=C2\CNC/C(=C\c3ccc(OC)cc3)C2=O)cc1
inactive: [1] > 100 µM | [2] 15.6 µM | [3] 15.8 µM | [4] > 100 µM | [5] 31.1 µM | [6] > 100 µM | [7] > 100 µM | [8] 4.22 µM | [9] 46.3 µM | [10] 14.7 µM | [11] 37.1 µM | [12] 59.4 µM | [13] 47.9 µM | [14] 75.3 µM | [15] 15.9 µM | [16] 49.4 µM | [17] 14 µM | [18] 27.2 µM

ON/N=C/c1cc2c(cc1Br)OCO2
inactive: [1] > 386 µM | [2] > 386 µM | [3] > 386 µM | [4] > 386 µM | [5] > 386 µM | [7] > 386 µM | [8] > 386 µM | [9] > 386 µM | [10] > 386 µM | [11] > 386 µM | [12] > 386 µM | [13] > 386 µM | [14] > 386 µM | [15] > 386 µM | [16] > 386 µM | [17] > 386 µM | [18] > 386 µM

CN(C)CC1CCCC(CN(C)C)C1OC(=O)c1ccccc1 (configuration not stated)
inactive: [1] > 100 µM | [2] > 100 µM | [3] > 100 µM | [4] > 100 µM | [5] > 100 µM | [6] > 100 µM | [7] > 100 µM | [8] > 100 µM | [9] > 100 µM | [10] > 100 µM | [11] > 100 µM | [12] > 100 µM | [13] > 100 µM | [14] > 100 µM | [15] > 100 µM | [16] > 100 µM | [17] > 100 µM | [18] > 100 µM

O=C(C[n+]1ccccc1)NNC(=O)/C(=C/c1ccc2c(c1)OCO2)NC(=O)c1ccccc1
inactive: [1] 36.7 µM | [2] 24.5 µM | [3] 34.8 µM | [4] 32.4 µM | [5] > 79.3 µM | [6] > 70.8 µM | [7] > 100 µM | [8] 20.6 µM | [9] 51.4 µM | [10] > 77.4 µM | [11] > 100 µM | [12] > 76.4 µM | [13] > 57.7 µM | [14] > 100 µM | [15] 35.2 µM | [16] > 67.9 µM | [17] 25.2 µM | [18] > 71.8 µM

COc1ccccc1/C=C(/C)[N+](=O)[O-]
inactive: [19] 2.79 µM and 2.53 µM | [1] 2.02 µM and 2.34 µM | [3] 2.43 µM and 2.02 µM | [4] 2.07 µM and 1.85 µM | [6] 1.69 µM and 1.72 µM | [9] 1.37 µM and 1.13 µM | [11] 2.24 µM and 1.98 µM | [12] 2.33 µM and 2.98 µM | [14] 1.74 µM and 1.77 µM | [15] 2.96 µM and 1.74 µM | [16] 1.89 µM and 1.58 µM | [17] 1.88 µM and 1.21 µM | [18] 3.65 µM and 3.44 µM

COc1cc2c(cc1OC)C1(c3ccc(Cl)cc3)ON=C(c3ccccc3)N1CS2 (configuration not stated)
inactive: [1] > 100 µM | [2] 48.1 µM | [3] > 100 µM | [4] > 100 µM | [5] 95.3 µM | [6] 27.1 µM | [7] > 100 µM | [8] 30.1 µM | [9] > 100 µM | [10] 75.3 µM | [11] 64.7 µM | [12] > 100 µM | [13] 92 µM | [14] > 100 µM | [15] > 100 µM | [16] 36 µM | [17] 24.2 µM | [18] 15.5 µM

C/C(CC(=O)Nc1cccc(Cl)c1C)=N\N=C(N)N
inactive: [1] > 100 µM | [2] > 100 µM | [4] > 100 µM | [5] > 100 µM | [6] > 100 µM | [7] > 100 µM | [8] > 100 µM | [9] > 100 µM | [10] 24.1 µM | [11] > 100 µM | [12] > 100 µM | [13] > 100 µM | [14] > 100 µM | [15] > 100 µM | [16] > 100 µM | [17] > 100 µM | [18] > 100 µM

Cc1nnc(N/N=C2\C(=O)Nc3ccccc32)n1N
inactive: [1] > 100 µM | [2] > 100 µM | [3] > 100 µM | [4] > 100 µM | [5] > 100 µM | [6] > 100 µM | [7] > 100 µM | [8] > 100 µM | [9] > 100 µM | [10] 29.6 µM | [11] > 100 µM | [12] > 100 µM | [13] > 100 µM | [14] > 100 µM | [15] > 100 µM | [16] > 100 µM | [17] 25.9 µM | [18] > 100 µM

CN1C(c2ccccc2)CC(=NO)CC1c1ccccc1 (configuration not stated)
inactive: [1] 74 µM | [2] 24 µM | [3] 48.8 µM | [4] 38.2 µM | [5] 41.5 µM | [6] 26.4 µM | [7] > 100 µM | [8] 19.7 µM | [9] 97.9 µM | [10] 29.4 µM | [11] 24.9 µM | [12] 40.9 µM | [13] 60 µM | [14] 55.1 µM | [15] 31.6 µM | [16] 39.8 µM | [17] 16.4 µM | [18] 35.9 µM

C#CC1(O)CCC2[C@@H]3CCc4cc(Oc5nc(F)nc(-c6c7ccccc7c(SCC)n6CCC)n5)ccc4C3CC[C@@]21C (some centres not stated)
inactive: [1] 20.6 µM | [2] 57.3 µM | [3] > 100 µM | [4] 63.8 µM | [5] 65.8 µM | [6] 33.3 µM | [7] > 100 µM | [8] 76 µM | [9] > 100 µM | [10] 51.4 µM | [12] > 100 µM | [13] > 100 µM | [14] > 100 µM | [15] > 100 µM | [16] 89.7 µM | [17] > 100 µM | [18] > 100 µM

C[N+](C)(C)CC1CCCC(C[N+](C)(C)C)C1O (configuration not stated)
inactive: [1] > 100 µM | [2] > 100 µM | [3] > 100 µM | [4] > 100 µM | [5] > 100 µM | [6] > 100 µM | [7] > 100 µM | [8] > 100 µM | [9] > 100 µM | [10] > 100 µM | [11] > 100 µM | [12] > 100 µM | [13] > 100 µM | [14] > 100 µM | [15] > 100 µM | [16] > 100 µM | [17] > 100 µM | [18] > 100 µM

— ChEMBL document CHEMBL1201862, “PubChem BioAssay data set” (2004)
